Structures can show the parent of a compound that is named as a salt.
Legend:
[1] = biological target: JNK1 (Homo sapiens, UniProt P45983); test: JNK1 inhibition; assay type: biochemical; settings: read-out: inhibition (IC50) with regard to JNK1
[2] = Solubility in water; assay type: physicochemical; settings: pH 7.4, aqueous buffer, pH of 7.4 at room temperature
Description: The compounds have been assessed in respect of their solubility in water, at a pH of 7.4 at room temperature. In general the solubility of compounds of formula (I) is in a range of at least 50 μg/mL solvent, more preferably of at least 100 μg/mL solvent. For instance compounds (63), (163), (198) display a solubility in water of at least 200 μg/mL solvent.

[3] = tested on: IL-2 release by (PMA+Ionomycin)-stimulated Jurkat cells; test: IL-2 release assay (IL-2 ELISA); assay type: cell-based; settings: Homo sapiens; PMA + Ionomycine stimulated Jurkat cells
Description: The Ability of the Compounds According to Formula I to Modulate the Inflammatory Response by Inhibiting the Release of IL-2 was Assessed Using the Following Protocol
JNK pathway activation triggers the production of inflammatory cytokines such as IL-2. JNK can be activated by external stimuli such as PMA and Ionomycine and IL-2 production can be measured via an IL-2 ELISA test. Comparative measurements with and without the compounds of the invention according to the following protocol measure the ability of the compounds to prevent to stress-mediated IL-2 release.
Jurkat cells, a human T cell leukemia cell line (American Type Culture Collection # TIB 152) were cultured in RPMI 1640 medium (Gibco, BRL) supplemented with 10% of […] fetal calf serum (FCS), Glutamine and Penstrep. The cell suspension in the medium is diluted to give 2.10^6 cells/mL. The cells were plated (2.10^5 cells/well) on a 96-well plate containing different concentrations of a compound according to formula I (final concentration of compounds, 10, 3, 1, 0.3, 0.1 μM). This mixture is incubated 30 minutes at 37° C. in a humidified CO2 atmosphere. Cells were then treated with 10 μl PMA (Phorbolmyristate-13 Acetate-12)+Ionomycine (0.1 μM and 1 μM final concentration) in all wells except negative control. In wells without compounds, 10 μl of RPMI 2% DMSO (=0.1% final) is added. Cells are incubated 24 hours at 37° C. and then the supernatant harvested (freeze at −20° C. if not used the same day) prior to performing IL-2 ELISA test on the supernatant.
IL-2 release into the medium by (PMA+Iononomycin)-stimulated Jurkat cells, in presence or absence of test compounds may be assayed by ELISA. Following the procedure described below.
Monoclonal anti-human IL-2 antibody (MAB602) (capture), biotinylated anti-human IL-2 antibody (BAF202) (detection) and recombinant human IL-2 (202-IL-010) (standard) from From R&D Systems are used. […]
• 1. […] Optical density is measured using a microtiter plate reader set to 450 nm with correction at 570 nm.

[4] = tested on: gerbil bilateral carotid occlusion; test: Global ischemia in gerbils; assay type: in vivo; settings: 80 mg/kg
Description: The Ability of the JNK Inhibitors Described in Formula I to Protect Cell Death During a Stroke Event was Assessed Using the Following Protocol:
The gerbil bilateral carotid occlusion is a well-described animal model of acute ischemic stroke and involves relatively easy surgical techniques.
The neuronal degeneration in the hippocampus develops over several days and is often referred as “delayed neuronal death”. In addition, the neurodegeneration observed histologically is obvious and easily quantified (37). Furthermore, the histopathology seen in the gerbil is similar to that observed in the hippocampal CA1 region of the human brain following a cardiac arrest. Behavior observations, such as memory tests, could even be performed in the case of gerbils. This kind of tests for appreciation of the degree of recovery is not easily manageable in other models such as in rat whose learning abilities are much poorer (38).
• Anesthesia with isoflurane (0.5-4%). • The common carotid arteries (left and right) are freed from tissue. • Occlusion of the arteries using Bulldog microclamps during 5 min. • Removal of clamps (reperfusion) • Stabulation of the animals under heating lamp until awake. • Stabulation of the animals in the animalry in individual cages. Sacrifice of the Animals • 7 days after ischemia (Decapitation or overdose of pentobarbital). • Sampling of the brain. […]

[5] = biological target: GST-JNK2 (Homo sapiens, UniProt P45984); test: JNK2 in vitro assay (33P incorporation into c-jun, SPA); assay type: biochemical
Chain of GST-JNK2 (P45984 whole entry): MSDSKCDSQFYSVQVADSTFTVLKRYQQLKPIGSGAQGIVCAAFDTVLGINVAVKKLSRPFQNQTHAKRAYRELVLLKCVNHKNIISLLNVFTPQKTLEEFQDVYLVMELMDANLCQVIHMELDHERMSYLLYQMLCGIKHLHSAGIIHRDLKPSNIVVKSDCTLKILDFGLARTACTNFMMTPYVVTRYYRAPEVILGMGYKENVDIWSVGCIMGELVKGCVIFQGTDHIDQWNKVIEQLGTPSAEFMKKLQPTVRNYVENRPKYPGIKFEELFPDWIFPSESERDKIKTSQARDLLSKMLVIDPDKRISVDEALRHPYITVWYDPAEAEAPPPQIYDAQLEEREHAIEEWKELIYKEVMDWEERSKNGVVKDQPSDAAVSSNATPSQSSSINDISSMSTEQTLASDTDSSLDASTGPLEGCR
Description: (§1) The phosphorylation of c-jun by JNK2 or JNK3 may be followed by monitoring the incorporation of ^33P into c-jun following the protocol below. The inhibitory activity of the compounds according to formula I, in respect of c-jun phosphorylation through JNK, is determined by calculating the phosphorylation activity of a JNK in the presence or absence of the test compounds according to formula I.
(§2) JNK3 and/or -2 assays are performed in 96 well NM plates: incubation of 0.5 μg of recombinant, pre-activated GST-JNK3 or GST-JNK2 with 1 μg of recombinant, biotinylated GST-c-Jun and 2 μM ^33γ-ATP (2 nCi/μl), in the presence or absence of compounds according to formula I and in a reaction volume of 50 μl containing 50 mM Tris-HCl, pH 8.0; 10 mM MgCl2; 1 mM Dithiothreitol, and 100 μM NaVO4. The incubation is performed for 120 min. at R.T and stopped upon addition of 200 μl of a solution containing 250 μg of Streptavidine-coated SPA beads (Amersham, Inc.)*, 5 mM EDTA, 0.1% Triton X-100 and 50 μM ATP, in phosphate saline buffer. After incubation for 60 minutes at RT, beads are sedimented by centrifugation at 1500×g for 5 minutes, resuspended in 200 μl of PBS containing 5 mM EDTA, 0.1% Triton X-100 and 50 μM ATP and the radioactivity measured in a scintillation β counter, following sedimentation of the beads as described above. By replacing biotinylated GST-c Jun with biotinylated GST-1ATF2 or biotinylated myelin basic protein, this assay may also be used to measure inhibition of pre-activated p38 and ERK MAP Kinases, respectively.

[6] = tested on: Male C57BL/6 mice; test: LPS induced endotoxin shock in mice; assay type: in vivo; settings: intravenously 15 min before LPS challenge
Description: Endotoxins are the lipopolysaccharides (LPS) constituents of the outer membrane of Gram negative bacteria. […] As LPS is known to stimulate the activation of various MAP kinase pathways, including JNK (35), the ability of JNK inhibitors can be tested after the JNK signaling pathway has been switched on by a LPS challenge.
LPS (S. abortus-Galanos Lab.-) is injected (200 μg/kg, i.v.) to Male C57BL/6 mice to induce endotoxin shock. Compounds according to formula I (0.1, 1, 10 mg/kg) or NaCl ([…]) are injected intravenously (10 mL/kg) 15 min before the LPS challenge. Heparinized blood was obtained from the orbital sinus at different time points after the LPS challenge, and the blood was centrifuged at 9'000 rpm for 10 min at 4° C. to collect supernatent. Measurement of cytokines production such as TNFα and IFNγ by mouse is performed with an ELISA kit such as Duoset® DY410 for TNFα and DY 485 for IFN γ. Other ELISA assays such as described in (36) can be used.

[7] = tested on: Sympathetic neurons from superior cervical ganglia (SCG); test: Sympathetic neuron culture and survival assay; assay type: cell-based, rat; settings: at 3 μM; anti NGF antibody induced cell death, MTT after 24 hours
Description: The Ability of the Compounds According to Formula I to Increase the Survival Rate of Neuronal Cells Having Been Induced to Cell Death was Assessed Using the Following Protocol
Cell death is induced at day 4 after plating by exposing the culture to medium containing 10 μg/mL of anti NGF anti-body (Boehringer Mannheim Corp., Indianapolis, Ind.) and no NGF or arabinosine, in the presence or absence of sulfonamide inhibitors. 24 hours after cell death induction, determination of cell viability is performed by incubation of the culture for 1 hour, at 37° C. in 0.5 mg/mL of 3-(4,5-dimethylthiazol-2-yl)-2,5 diphenyl tetrazolium bromide (MTT). After incubation in MTT cells are resuspended in DMSO, transferred to a 96 MTT plate and cell viability is evaluated by measuring optical density at 590 nm.

[8] = biological target: GST-JNK3 (Homo sapiens, UniProt P53779); test: JNK3 in vitro assay (33P incorporation into c-jun, SPA); assay type: biochemical
Chain of GST-JNK3 (P53779 whole entry): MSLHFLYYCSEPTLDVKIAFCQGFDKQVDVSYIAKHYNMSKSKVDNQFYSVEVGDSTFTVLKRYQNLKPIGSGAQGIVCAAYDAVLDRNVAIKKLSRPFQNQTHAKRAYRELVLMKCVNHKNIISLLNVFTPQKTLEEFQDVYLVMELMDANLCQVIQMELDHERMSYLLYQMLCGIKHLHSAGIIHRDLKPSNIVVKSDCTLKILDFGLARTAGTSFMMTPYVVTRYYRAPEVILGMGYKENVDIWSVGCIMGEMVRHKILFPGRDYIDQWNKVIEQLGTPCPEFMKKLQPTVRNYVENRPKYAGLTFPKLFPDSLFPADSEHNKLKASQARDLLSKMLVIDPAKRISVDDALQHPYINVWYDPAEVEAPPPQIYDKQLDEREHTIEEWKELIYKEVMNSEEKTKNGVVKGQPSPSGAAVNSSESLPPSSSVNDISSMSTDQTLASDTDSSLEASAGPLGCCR
Description: as §1, §2

Chain of JNK1 (P45983 whole entry, species assumed): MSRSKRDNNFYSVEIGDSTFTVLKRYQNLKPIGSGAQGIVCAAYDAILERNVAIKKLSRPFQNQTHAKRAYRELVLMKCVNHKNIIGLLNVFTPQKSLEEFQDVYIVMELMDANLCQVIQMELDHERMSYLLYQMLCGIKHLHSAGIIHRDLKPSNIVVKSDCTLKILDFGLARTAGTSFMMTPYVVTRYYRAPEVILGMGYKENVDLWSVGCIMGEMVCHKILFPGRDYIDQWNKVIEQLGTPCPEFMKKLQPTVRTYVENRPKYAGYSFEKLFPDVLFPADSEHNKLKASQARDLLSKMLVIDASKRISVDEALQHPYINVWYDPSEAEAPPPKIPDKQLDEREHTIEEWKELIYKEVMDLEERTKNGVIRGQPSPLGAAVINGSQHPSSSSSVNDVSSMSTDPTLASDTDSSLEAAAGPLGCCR

With `O=C(NCc1ccc(S(=O)(=O)N2CCC(NCc3ccc(C(F)(F)F)cc3)CC2)s1)c1ccc[nH]c1=O` [Example 198, 2-Oxo-N-({5-[(4-{[4-(trifluoromethyl)benzyl]amino}-1-piperidinyl)sulfonyl]-2-thienyl}methyl)-1,2-dihydro-3-pyridinecarboxamide] the IC50 [1] was 100 to 700 nM and the solubility [2] was ≥ 200 µg/mL.

In the case of `O=C(NCc1ccc(S(=O)(=O)N2CCC(NCc3ccc(C(F)(F)F)cc3)CC2)s1)c1ccc[nH]c1=O` (as salt: HCl) [Example 198, 2-Oxo-N-({5-[(4-{[4-(trifluoromethyl)benzyl]amino}-1-piperidinyl)sulfonyl]-2-thienyl}methyl)-1,2-dihydro-3-pyridinecarboxamide], the melting point is reported as 288 to 289 °C.

In the case of `CCCCNC1CCN(S(=O)(=O)c2ccc(CNC(=O)c3ccc(Cl)cc3)s2)CC1` [Example 68, 4-chloro-N-[(5-{[4-(butylamino)piperidin-1-yl]sulfonyl}thien-2-yl)methyl]benzamide], the IC50 [3] is reported as < 800 nM and the “inhibition of global ischemia (% inhibition of total lesion)” value [4] is reported as 64%.

With `CCCCCCNC1CCN(S(=O)(=O)c2ccc(CNC(=O)c3ccc(Cl)cc3)s2)CC1` [Example 63, 4-Chloro-N-[(5-{[4-(hexylamino)piperidin-1-yl]sulfonyl}thien-2-yl)methyl]benzamide] the IC50 [5] was < 600 nM, the “inhibition of IFNγ production” value ([6]; 1 mg/kg) was 65% and the “inhibition of TNFα production” value ([6]; 10 mg/kg) was 40%. The IC50 [1] was 100 to 700 nM, the “rescue rate of SCG cells” value [7] was 35% and the IC50 [8] was < 600 nM. For the same molecule, the solubility [2] was ≥ 200 µg/mL.

— patent US7544700B2, “Pharmaceutically active sulfonamide derivatives bearing both lipophilic and ionisable moieties as inhibitors of protein JunKinases” (Laboratoires Serono SA, priority 2000, dated 2009)
